Legend:
Format in all cases: cell-based
[1] = target: T1, chloride intracellular channel-1 (CLIC1) (Homo sapiens, UniProt O00299, R29A); assay: whole-cell patch clamp in transfected CHO cells
T1 construct: FLAG-tagged CLIC1 R29A expressed in CHO cells

[2] = target: T2, chloride intracellular channel-1 (CLIC1) (Homo sapiens, UniProt O00299); assay: whole-cell patch clamp in transfected CHO cells; set-up: FLAG-tagged CLIC1-wt expressed in CHO cells
[3] = target: T3, chloride intracellular channel-1 (CLIC1) (Homo sapiens, UniProt O00299, K37A); assay: whole-cell patch clamp in transfected CHO cells, metformin […]
T3 construct: FLAG-tagged CLIC1 K37A expressed in CHO cells

[4] = target: T2, chloride intracellular channel-1 (CLIC1); assay: patch clamp, whole-cell (U87, GBM CSC, CHO expressing human CLIC1) and outside-out single channel

SMILES | EC50 [1] | EC50 [2] | whole-cell patch clamp in transfected CHO cells, metformin 10 mM [3] | EC50 [4]
CC1(C2CCCC2)Cc2cc(OCC(=O)O)c(Cl)c(Cl)c2C1=O (stereo not shown) [IAA94] | 29.2 µM | 27.3 µM | – | –
CN(C)C(=N)N=C(N)N [Metformin] | – | – | Metformin significantly inhibited membrane current in CLIC1 wt and K37A-transfected cells (Fig. 7A and D) | 2100 µM

Source: article PMC4294381, “Metformin repositioning as antitumoral agent: selective antiproliferative effects in human glioblastoma stem cells, via inhibition of CLIC1-mediated ion current” (Oncotarget, 2014)
